Data on 108 compounds can be found in ChEMBL document CHEMBL3988442, “University of Dundee, Small-Polar-MMV Screening Library” (2021).

Tryptophan--tRNA ligase, sequence (P9WFT3 whole entry): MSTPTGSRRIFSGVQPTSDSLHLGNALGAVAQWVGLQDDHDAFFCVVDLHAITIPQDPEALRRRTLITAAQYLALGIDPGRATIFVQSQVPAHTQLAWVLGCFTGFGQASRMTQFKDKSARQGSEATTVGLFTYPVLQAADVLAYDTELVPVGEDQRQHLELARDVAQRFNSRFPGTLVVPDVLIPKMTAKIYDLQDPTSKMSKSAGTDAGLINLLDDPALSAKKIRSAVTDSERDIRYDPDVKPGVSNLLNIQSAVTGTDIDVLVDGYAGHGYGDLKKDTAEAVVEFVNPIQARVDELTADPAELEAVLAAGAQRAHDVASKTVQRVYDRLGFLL

The assay concerns the target Tryptophan--tRNA ligase (Mycobacterium tuberculosis (strain ATCC 25618 / H37Rv), UniProt P9WFT3). In words: Biochemical assay for Mt-TrpRS. The class given is functional.
Consider `NC(=O)C1(CCCc2ccncc2)CCCN1` (stereo not drawn), for which the IC50 – broadly, the concentration needed to halve the response being measured – was more than 195 µM. The compound `Cn1ncc(NC(=O)c2noc3c2CCCC3)c1C(N)=O` had an IC50 of more than 195 µM. Under `COC(=O)CCCNC(=O)Nc1ccccc1OC` stands more than 195 µM; under `COCC(=O)N1CC(=O)c2sc(Nc3ccc(F)cc3F)nc2C1`, more than 195 µM.

The compound `CSCC(C)(O)CNc1ncccc1I` (stereo not drawn) gave an IC50 of more than 195 µM.

For `COc1ccccc1NC(=O)NCCCC(=O)Nc1cn[nH]c1`, the IC50 is more than 195 µM.

With `COCCN1CCC(NCc2ccc(F)cc2F)C1` (stereo not drawn), the IC50 is more than 195 µM. Regarding `Cc1nc(C(=O)NCc2ccccn2)cc(C2CCCN2)n1` (stereo not drawn), the IC50 was more than 195 µM. For the compound `CN1CC[C@@H]2OC[C@H](C(=O)N(C)Cc3ccccn3)C[C@@H]2C1`, the IC50 is more than 195 µM.

`O=C(CN1CCOC1=O)N1CC[C@@H](c2ccc3ccccc3c2)[C@H](O)C1` had an IC50 of more than 195 µM. Then `CN(C)C(=O)CN1CCO[C@H]2CN(Cc3ccoc3)C[C@H]21`, with more than 195 µM. As for `CSc1ncc(C(=O)NCc2cc3n(n2)CCCN(CC(C)C)C3)cn1`, the IC50 is more than 195 µM. The compound `COc1ccccc1C1=NOC(CC2(C(=O)O)CCOCC2)C1` (stereo not drawn) showed a 50% inhibitory concentration (IC50) of more than 195 µM.

Regarding `Cn1c(=O)c2cc(C(=O)NCCc3ccccc3)ccc2n(C)c1=O`, the half-maximal inhibitory concentration (IC50) was more than 195 µM. Under `Cc1cc(NC(=O)CNC2CCc3nc(C(C)C)nn3C2)no1` (stereo not drawn) stands more than 195 µM; under `COCCN1CC(=O)c2sc(NC(C)C)nc2C1`, more than 195 µM. The compound `CC(CC#N)n1ccc(C(F)(F)F)n1` (stereo not drawn) showed an IC50 of more than 195 µM. The compound `CCC(CC)c1nnc(NC(=O)NC(C)Cn2cccn2)s1` (stereo not drawn) had an IC50 of more than 195 µM. Then `N#Cc1cnc(N2CCC3(CC2)OCCO3)nc1N`, with more than 195 µM. Under `CN(Cc1cnn(C)c1)C(=O)CN1CCCC(Cn2cncn2)C1` (stereo not drawn) stands more than 195 µM; under `CCOCC1c2c(ncn2C)CCN1C(=O)c1cscn1` (stereo not drawn), more than 195 µM; under `CC(=O)N1CCCC(Cc2nccn2C)C1` (stereo not drawn), more than 195 µM. For the compound `CCOC1CC2(CCN(Cc3nccn3C)CC2)C1`, the IC50 is more than 195 µM.

For `Cn1cc(C(=O)NCc2cncc3c2CCN(CC2CC2)C3)cn1`, the IC50 is more than 195 µM. Under `O=S1(=O)CCC(N(Cc2nc3ccccc3o2)Cc2cccs2)C1` (stereo not drawn) stands more than 195 µM; under `CC(C)c1nc(CN2CCC(c3ccnn3CCO)CC2)no1`, more than 195 µM.

On to `O=C(NCC1=CCCCC1)C(c1cccnc1)N1CCCC1` (stereo not drawn), for which the IC50 was more than 195 µM.

`O=C(Cc1cccc(O)c1)N1CCCC(O)(CN2CCOCC2)CC1` (stereo not drawn) showed an IC50 of more than 195 µM. Under `CCCS(=O)(=O)N1C[C@@H](c2ccccc2)[C@@]2(CCNC2=O)C1` stands more than 195 µM. Then `Cc1cncc(CN2C[C@@H](O)[C@H](Oc3ccccc3)C2)c1`, with more than 195 µM; and `CCOCCN1CCC(C(=O)c2cc(F)ccc2F)CC1`, with more than 195 µM.

In turn, `Cc1cc(C)n(NC(=O)c2ccccc2F)c(=O)c1` gave an IC50 of more than 195 µM. In the case of `COc1cccc(C2=CCN(CCN3CCOC3=O)CC2)c1`, the IC50 was more than 195 µM. Under `Cc1cccnc1C(=O)N1CCC(Cc2cnc3[nH]ccc3c2)CC1` stands more than 195 µM; under `C[C@]1(O)CN(Cc2ncc[nH]2)CC[C@@H]1Oc1cccc(F)c1`, more than 195 µM.

`CO[C@H]1CC[C@H]2[C@H]1OCCN2C(=O)C1=CCCC1` had an IC50 of more than 195 µM.

`CC(C)(Oc1ccc(C(N)=O)cc1)C(=O)N(CCC#N)CC1CCCO1` (stereo not drawn) gave an IC50 of more than 195 µM.

Turning to `Cc1cccc(NCc2nc(C)ccc2O)c1`, the 50% inhibitory concentration (IC50) is 81.8 µM. For `CS(=O)(=O)NC1CCN(C(=O)CCC2CCCO2)CC1` (stereo not drawn), the 50% inhibitory concentration (IC50) is more than 195 µM. In the case of `CCO[C@H]1CC[C@H]2[C@H]1OCCN2C(=O)COc1ccccc1`, the IC50 was more than 195 µM.

As to `Cc1cnn(-c2ccc(S(N)(=O)=O)cc2F)c1`, the IC50 is more than 195 µM. Then `Cc1ccn(-c2ccc(N3CCCN(Cc4ccccc4)CC3)nn2)n1`, with more than 195 µM; and `c1cncc(CN2CCc3ncnc(C4CC4)c3CC2)c1`, with more than 195 µM; and `Cn1nc(C#N)c2c1CN(C(=O)c1ccco1)CCC2`, with more than 195 µM. Then `Cn1nccc1CN1CCCC(COc2ccccc2F)C1` (stereo not drawn), with more than 195 µM; and `Cc1cc(C)nc(C2CCN(C(=O)c3cncnc3C)C2)n1` (stereo not drawn), with more than 195 µM; and `CN(CCc1ccccn1)C(=O)Nc1cc(C(F)(F)F)c[nH]c1=O`, with more than 195 µM. As for `Cc1nn(C)c(C)c1C1COCCN1C(=O)c1ccc(Cl)o1` (stereo not drawn), the IC50 is more than 195 µM.

In the case of `c1cnc(N2CCO[C@H]3CN(CC4CCOC4)C[C@H]32)cn1` (stereo partly drawn), the IC50 was more than 195 µM. `O=C(CC1CC1)N1CCC2(CC1)C(=O)NCCN2Cc1ccccc1` had a concentration for half-maximal inhibition (IC50) of more than 195 µM.

With `CCn1cnnc1CNC(=O)NC(c1cccs1)C1CCCC1` (stereo not drawn), the IC50 was more than 195 µM.

As to `NC(=O)C1(Cc2ccc(-c3ccccc3)cc2)CCNC1` (stereo not drawn), the IC50 was more than 195 µM. In turn, `COCC(O)CN1CCC(=O)N(Cc2ccco2)Cc2ccccc21` (stereo not drawn) gave an IC50 of more than 195 µM.

In the case of `CC(=O)N1CCC(Cc2cnc(C(=O)N3CCCC3)cn2)C1` (stereo not drawn), the concentration for half-maximal inhibition (IC50) was more than 195 µM. For the compound `Cc1ncsc1C(=O)N(Cc1ccccn1)C1CC1`, the half-inhibitory concentration (IC50) is more than 195 µM. Then `COc1ccc2c3c1CN(C(C)=O)CC3=CC(C)(C)CO2`, with more than 195 µM; and `O=C(NCCc1ccccc1)C1CCN(C(=O)Cn2cncn2)C1` (stereo not drawn), with more than 195 µM; and `O=C(c1ccc(=O)[nH]n1)N1CCNCC1c1ccccc1` (stereo not drawn), with more than 195 µM. Consider `COc1cc(CN2CC[C@H](NC(C)=O)[C@@H](O)CC2)ccc1F`, for which the half-maximal inhibitory concentration (IC50) was more than 195 µM.

Compound `CC(=O)N1CCN(c2cc(CCN)nc(C3CC3)n2)CC1` had an IC50 of more than 195 µM. The compound `COc1c(C(=O)N2CCC(CSc3ccccc3)C2)c(C)nn1C` (stereo not drawn) gave an IC50 of more than 195 µM. Under `CCOCC(=O)N1C[C@@H]2CC[C@H](Oc3ccccc3)[C@@H]2C1` stands more than 195 µM; under `CCc1noc(CN2CCN(c3nccs3)CC2)n1`, more than 195 µM. Then `COc1ccccc1OCCc1nnc(NC(=O)C2CC23CCC3)s1` (stereo not drawn), with more than 195 µM.

On to `CSCCC(NC(=O)c1nc(SC)ncc1Cl)C(=O)O` (stereo not drawn), for which the IC50 was more than 195 µM. Then `Cc1cc(CS(=O)(=O)CC(=O)N2c3ccccc3CC2C)no1` (stereo not drawn), with more than 195 µM. `Cc1nc(Cn2c3c(ccc2=O)CC(NC(N)=O)CC3)cs1` (stereo not drawn): the IC50 was more than 195 µM. Consider `CC(=O)N1CCO[C@@H]2CN(Cc3cccc(Cl)c3)C[C@@H]2C1`, for which the IC50 is more than 195 µM.

`Cc1cc2cc(C(=O)N3C[C@H](O)[C@]4(CCCO4)C3)ccc2o1`: the IC50 is more than 195 µM. Then `CN(C)C(=O)N1CC[C@@H](c2ccc3ccccc3c2)[C@H](O)C1`, with more than 195 µM; and `Cc1c[nH]nc1C1CCN(S(=O)(=O)N(C)C)C1` (stereo not drawn), with more than 195 µM; and `CC(C)n1c2ccccc2c2c1cc(C(=O)N(C)C)n2S(C)(=O)=O`, with more than 195 µM. `Cc1cccc(CN2CCC(c3nnsc3S(C)(=O)=O)CC2)c1` gave a 50% inhibitory concentration (IC50) of more than 195 µM. Then `O=C1CO[C@H]2CN(Cc3ccccc3Br)C[C@@H]2N1`, with more than 195 µM; and `COCCc1ncc(CNC2(c3ccc(Cl)cc3Cl)CC2)cn1`, with more than 195 µM; and `c1cc(CN2C[C@H](OCC3CCOCC3)[C@H]3COC[C@H]32)co1`, with more than 195 µM. Consider `CN1C(=O)CC(C(=O)O)C12CCN(Cc1ccc(Cl)c(F)c1)CC2` (stereo not drawn), for which the IC50 is more than 195 µM. With `CCc1ccc(C(=O)N2CCN(CC(O)CC)CC2)o1` (stereo not drawn), the IC50 is more than 195 µM. Compound `COCCN1CCN(CCS(C)(=O)=O)CC1C` (stereo not drawn) showed a 50% inhibitory concentration (IC50) of more than 195 µM. Under `Cc1ccc(S(=O)(=O)NCc2[nH]ncc2Br)cc1F` stands more than 195 µM; under `Cc1cccc(CN2CCCC2c2cccc(CCC(=O)O)n2)c1` (stereo not drawn), more than 195 µM; under `CC(=O)N1CCCC(c2ccc(C(N)=O)cn2)C1` (stereo not drawn), more than 195 µM. `CC(=O)c1cc2ncc(C(=O)NC3CC3)cc2[nH]1` showed an IC50 of more than 195 µM. Compound `CC(C)c1nc(CN2CCCC(Cn3cncn3)C2)cs1` (stereo not drawn) had an IC50 of more than 195 µM. Compound `O=C(C1CCCC1)N1CCC(c2n[nH]c3nccnc23)CC1` gave a concentration for half-maximal inhibition (IC50) of more than 195 µM. On to `CCn1c2c(ccc1=O)CC(NCc1cnn(C)c1)CC2` (stereo not drawn), for which the IC50 was more than 195 µM. Turning to `O[C@@H]1CN(Cc2ccncc2)C[C@H]1Oc1ccccc1`, the 50% inhibitory concentration (IC50) is more than 195 µM. With `CCOC1COC2(CCN(CC3CC3)CC2)C1` (stereo not drawn), the IC50 was more than 195 µM. In turn, `c1cc(-c2cnc(C3CCNCC3)cn2)n[nH]1` had an IC50 of more than 195 µM.

The compound `O=C(NCc1ccccn1)c1cncc(C2CCCN2)n1` (stereo not drawn) showed an IC50 of more than 195 µM. Then `COCc1cncc2c1CCN(C(=O)c1cscn1)C2`, with more than 195 µM; and `CN(C)C(=O)CN1CCOCC2(C1)CN(c1ncccn1)CCO2` (stereo not drawn), with more than 195 µM. Then `NC(=O)CN1CCC(c2cccc(Oc3ccccc3)n2)CC1`, with more than 195 µM; and `CCn1cc(N)c(-c2nnc3n2CCCC3)n1`, with more than 195 µM; and `COc1cccc(S(=O)(=O)N2C[C@@H](O)[C@H](N(C)C)C2)c1`, with more than 195 µM. Compound `NC(=O)CN1CCOCC(Cc2ccccc2)C1` (stereo not drawn) showed an IC50 of more than 195 µM. Then `COc1cccc(C(=O)NC(c2ccccn2)[C@H]2CC[C@H](CN)CC2)c1` (stereo partly drawn), with more than 195 µM; and `CN(C)CCO[C@H]1CN(CC2CC2)[C@@H]2CCCO[C@H]12`, with more than 195 µM; and `NC(=O)C1(CCCc2ccccn2)CCCN(Cc2ccncc2)C1` (stereo not drawn), with more than 195 µM. Then `CC(C)CN1C[C@H](COCc2ccccc2)Oc2ncccc2C1=O`, with more than 195 µM; and `O=C1CC[C@H]2[C@H](CCN2c2ncccn2)N1c1ccccc1`, with more than 195 µM. `CCc1cc(O)nc(C2CCCN2C(=O)COC)n1` (stereo not drawn) gave an IC50 of more than 195 µM. Then `Cc1noc([C@@H]2C[C@H]3CN(CC4CCOCC4)C[C@H]3O2)n1`, with more than 195 µM; and `O=C(C1CCCC1)N1CCCC(c2nc(O)cc(-c3ccncc3)n2)C1` (stereo not drawn), with more than 195 µM. Under `Cc1cn(Cc2ccc(F)c(F)c2)nc1N` stands more than 195 µM; under `CCCC1CN(CCOc2ccccc2)C(=O)c2cccnc2O1` (stereo not drawn), more than 195 µM; under `Cc1nn(C)c(N(C)C)c1CNCCS(C)(=O)=O`, more than 195 µM. Then `CCC(=O)N1CCC2(C=C(C(=O)N3CCCC3)c3ccccc32)CC1`, with more than 195 µM.
